The results in this text go back to US20230174523A1, “BENZENESULFONAMIDE DERIVATIVES AS TRAP1 MODULATORS AND USES THEREOF” (Amathus Therapeutics, Inc., priority 2020, published 2023).

Where only a bound is given, the exact number is not on record here.

This experiment addresses T1, TRAP1 enzyme (Homo sapiens, UniProt Q12931).
T1 sequence (Q12931 60-704): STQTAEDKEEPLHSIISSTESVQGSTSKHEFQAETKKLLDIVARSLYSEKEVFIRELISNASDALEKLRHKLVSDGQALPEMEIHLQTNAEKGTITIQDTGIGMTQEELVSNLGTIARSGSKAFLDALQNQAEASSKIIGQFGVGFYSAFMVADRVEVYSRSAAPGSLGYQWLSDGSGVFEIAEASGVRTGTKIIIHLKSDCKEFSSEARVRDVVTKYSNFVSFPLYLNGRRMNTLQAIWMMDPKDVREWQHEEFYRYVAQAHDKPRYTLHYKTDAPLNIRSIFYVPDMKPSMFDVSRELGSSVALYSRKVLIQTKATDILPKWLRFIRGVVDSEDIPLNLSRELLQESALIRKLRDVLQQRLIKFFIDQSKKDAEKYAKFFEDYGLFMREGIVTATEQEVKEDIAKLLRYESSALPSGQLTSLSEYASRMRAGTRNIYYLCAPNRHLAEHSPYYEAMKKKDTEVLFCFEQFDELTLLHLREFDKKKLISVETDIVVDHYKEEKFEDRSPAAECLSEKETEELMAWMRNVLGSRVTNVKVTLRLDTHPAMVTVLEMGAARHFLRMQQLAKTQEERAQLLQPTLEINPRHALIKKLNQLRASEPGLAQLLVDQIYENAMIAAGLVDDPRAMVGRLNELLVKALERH
In words: Malachite green phosphate assay of TRAP1 ATPase activity. The format is biochemical. The settings on record: for EC50: TRAP1 ATPase activation, 150 nM Trap1, 20 μM ATP, geometric mean, read-out: Malachite Green Fluor DRC: GeoMean EC50; for Emax: read-out: Malachite Green Fluor DRC: Mean Emax. In short, it runs like this: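 Compound (0.78 μM-100 μM) preincubated with 150 nM TRAP1 in 50 mM HEPES pH 7.5, 20 mM KCl, 4 mM MgCl2, 0.05% BSA, 30 min at 37 °C; reaction started with 20 μM ATP, 180 min at 37 °C. Phosphate quantified by malachite green against a standard curve; Emax and EC50 from sigmoidal fits of activation.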

As a reminder, the EC50 is the concentration at which the effect is half-maximal. Usually Emax stands for the maximal effect, on the per cent scale that the assay sets. Consider `COc1ccc(NC(=O)c2ncco2)cc1S(=O)(=O)Nc1ccc(Br)cc1` [Compound 172], for which the EC50 was under 10 µM and the Emax lay in the range of 160 to 199%.
Turning to `COc1ccc(NC(=O)c2cnc(C(F)(F)F)[nH]2)cc1S(=O)(=O)Nc1ccccc1C` [Compound 232], the EC50 was under 10 µM and the Emax lay in the range of 123 to 159%.
For `C=C(C)c1ncoc1C(=O)Nc1ccc(OC)c(S(=O)(=O)Nc2ccc(Cl)cc2)c1` [Compound 593] the same measures were 20 to 100 µM and 200 to 300%.
The like results for `COc1ccc(NC(=O)c2cnc(C(F)(F)F)[nH]2)cc1S(=O)(=O)N(CCCCN1CCCC1)c1ccc(Br)cc1` [Compound 437] were, in that order, 20 to 100 µM and 160 to 199%.
Turning to `COc1ccc(NC(=O)c2cnc(C(F)(F)F)[nH]2)cc1S(=O)(=O)N(CCCCN1CCOCC1)c1ccc(Br)cc1` [Compound 430, N-(3-(N-(4-bromophenyl)-N-(4-morpholinobutyl)sulfamoyl)-4-methoxyphenyl)-2-(trifluoromethyl)-1H-imidazole-5-carboxamide], the half-maximal effective concentration (EC50) lay in the range of 20 to 100 µM and the Emax was in the range of 200 to 300%.
As to `COc1ccc(NC(=O)c2cnccc2C)cc1S(=O)(=O)Nc1c(C)cccc1C` [Compound 471], the EC50 lay within 20 to 100 µM and the Emax lay in the range of 160 to 199%.
For `COc1ccc(NC(=O)c2cnc[nH]2)cc1S(=O)(=O)N(CCCCCCN)c1ccc(Br)cc1` [Compound 266, N-(3-(N-(6-aminohexyl)-N-(4-bromophenyl)sulfamoyl)-4-methoxyphenyl)-1H-imidazole-5-carboxamide] the same measures were under 10 µM and 160 to 199%.
For `COc1ccc(NC(=O)c2cnc(-c3ccccc3)[nH]2)cc1S(=O)(=O)N(C)c1ccc(Br)cc1` [Compound 164] the same measures were 20 to 100 µM and 160 to 199%.
For `COc1ccc(NC(=S)c2ncco2)cc1S(=O)(=O)Nc1ccc(Cl)cc1` [Compound 598, N-(3-(N-(4-chlorophenyl)sulfamoyl)-4-methoxyphenyl) oxazole-2-carbothioamide] the same measures were 20 to 100 µM and 200 to 300%.
With `COc1ccc(NC(=O)c2cnc(-c3ccccc3)[nH]2)cc1S(=O)(=O)N(CCOCCOCCN)c1ccc(Br)cc1` [Compound 637], the EC50 lay in the range of 20 to 100 µM and the Emax is over 300%.
The like results for `COc1ccc(NC(=O)c2nnc(-c3ccccc3)o2)cc1S(=O)(=O)Nc1c(Cl)cccc1Cl` [Compound 469] were, in that order, under 10 µM and 160 to 199%.
Consider `O=C(Nc1cccc(S(=O)(=O)Nc2ccc(Br)cc2)c1)c1cnc(C(F)(F)F)[nH]1` [Compound 228], for which the EC50 lay within 10 to 20 µM and the Emax was in the range of 200 to 300%.
The like results for `COc1ccc(NC(=O)c2cn(C)c(C(F)(F)F)n2)cc1S(=O)(=O)Nc1ccc(Br)cc1` [Compound 364] were, in that order, 20 to 100 µM and 160 to 199%.
For `Cc1ncoc1C(=O)Nc1cccc(S(=O)(=O)N(c2ccc(Cl)cc2)C(C)C)c1` [Compound 551], the EC50 lay within 10 to 20 µM and the Emax is 160 to 199%.
The like results for `COc1ccc(NC(=O)c2cnc(-c3ccccc3)[nH]2)cc1S(=O)(=O)N1Cc2ccc(F)cc2C1` [Compound 200] were, in that order, under 10 µM and 160 to 199%.
For `COc1ccc(NC(=O)c2cnc(-c3ccccc3)o2)cc1S(=O)(=O)Nc1ccc(C(F)(F)F)cc1` [Compound 650] the same measures were 20 to 100 µM and 200 to 300%.
The like results for `O=C(Nc1ccc(F)c(S(=O)(=O)Nc2c(F)cc(Cl)cc2F)c1)c1ncc(-c2ccccc2)o1` [Compound 503] were, in that order, under 10 µM and 123 to 159%.
